Drawing on patent US20260297080A1, “BICYCLIC COMPOUNDS AS CDK INHIBITORS” (BeOne Medicines I GmbH, priority 2022, published 2026), this text covers IC50 for 24 compounds.

As a reminder, the IC50 is the concentration at which inhibition is half-maximal.

The target in one assay is CDK2/Cyclin E1 (Homo sapiens, UniProt P24941). Description: CDK2/Cyclin E1 Biochemical Assay (TR-FRET), 0.060 mM ATP. The following applies: 0.15 μM Rb (Ser780)-biotin substrate, pH7.0, 60 min preincubation, 120 min reaction, room temperature. The method in brief:
(§1)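 Percent inhibition was derived from the 665 nm/620 nm TR-FRET ratio after a 120-minute room-temperature reaction on 0.15 μM Rb (Ser780)-biotin, preceded by 60-minute enzyme–compound preincubation. IC50 came from four-parameter logistic fitting.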
A general note: TR-FRET usually uses a lanthanide donor and a delayed reading to cut background.

The target in a further assay is CDK1/Cyclin B1 (Homo sapiens, UniProt P06493). Description: CDK1/Cyclin B1 Biochemical Assay (TR-FRET), 0.015 mM ATP. The following applies: 0.15 μM Rb (Ser780)-biotin substrate, pH7.0, 60 min preincubation, 120 min reaction, room temperature. The procedure, abridged:
as §1

Sequence of CDK1/Cyclin B1 (P06493 whole entry): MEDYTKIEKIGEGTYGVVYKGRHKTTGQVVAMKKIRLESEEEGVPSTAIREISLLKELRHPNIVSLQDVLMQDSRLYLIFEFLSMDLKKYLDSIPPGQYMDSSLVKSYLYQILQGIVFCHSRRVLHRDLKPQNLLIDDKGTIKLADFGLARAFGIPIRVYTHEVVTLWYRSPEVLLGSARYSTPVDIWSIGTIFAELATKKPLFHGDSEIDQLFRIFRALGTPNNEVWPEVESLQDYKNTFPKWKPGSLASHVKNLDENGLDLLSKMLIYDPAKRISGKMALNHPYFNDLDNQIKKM
Sequence of CDK1/Cyclin B1 (P14635 whole entry partner): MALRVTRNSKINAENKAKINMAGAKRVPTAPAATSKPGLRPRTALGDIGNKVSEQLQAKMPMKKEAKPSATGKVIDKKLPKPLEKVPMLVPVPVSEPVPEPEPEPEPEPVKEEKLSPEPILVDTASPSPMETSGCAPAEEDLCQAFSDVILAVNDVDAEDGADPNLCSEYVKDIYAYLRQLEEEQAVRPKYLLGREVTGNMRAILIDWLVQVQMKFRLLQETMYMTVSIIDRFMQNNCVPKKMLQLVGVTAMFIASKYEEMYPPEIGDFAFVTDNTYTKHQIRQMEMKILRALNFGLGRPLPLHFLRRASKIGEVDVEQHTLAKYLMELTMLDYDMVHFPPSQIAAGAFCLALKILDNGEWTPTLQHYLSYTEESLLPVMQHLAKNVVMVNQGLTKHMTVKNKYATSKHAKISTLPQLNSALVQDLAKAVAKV

`CC(C)NC(=O)O[C@H]1CC[C@@H](c2cc(Nc3ccc4c(c3)CN(c3ccc5c(c3)CNS5(=O)=O)S4(=O)=O)n[nH]2)C1` (relative stereo) [Example 18, cis-3-(3-((1,1,1′,1′-tetraoxido-2′,3′-dihydro-3H-[2,5′-bibenzo[d]isothiazol]-5-yl)amino)-1H-pyrazol-5-yl)cyclopentyl isopropylcarbamate]: the values for the IC50 at CDK2/Cyclin E1 and on CDK1/Cyclin B1 were 21.5 nM and 422 nM, respectively.
For `C[C@H]1[C@H](O)CN1C(=O)O[C@H]1CC[C@@H](c2cc(Nc3ccc4c(c3)CS(=O)(=O)N4C)n[nH]2)C1` (relative stereo) [Example 354, cis-3-(3-((1-methyl-2,2-dioxido-1,3-dihydrobenzo[c]isothiazol-5-yl)amino)-1H-pyrazol-5-yl)cyclopentyl(2S,3R)-3-hydroxy-2-methylazetidine-1-carboxylate], in that order: 11 nM and 85 nM.
For `CCCNC(=O)O[C@H]1CC[C@@H](c2cc(Nc3ccc4c(c3)CNS4(=O)=O)n[nH]2)C1` (relative stereo) [Example 178, cis-3-(3-((1,1-dioxido-2,3-dihydrobenzo[d]isothiazol-5-yl)amino)-1H-pyrazol-5-yl)cyclopentyl propylcarbamate], in that order: 1.5 nM and 41 nM.
On the same counts, the results for `CC[C@H](C)NC(=O)O[C@H]1CC[C@@H](c2cc(Nc3ccc4c(c3F)CNS4(=O)=O)n[nH]2)C1` (single isomer, unassigned) [Example 139b] are 0.9 nM and 52 nM.
As to `CC(C)NC(=O)O[C@H]1CC[C@@H](c2cc(Nc3ccc4c(c3)NS(=O)(=O)C4(C)C)n[nH]2)C1` (relative stereo) [Example 304, cis-3-(3-((3,3-dimethyl-2,2-dioxido-1,3-dihydrobenzo[c]isothiazol-6-yl)amino)-1H-pyrazol-5-yl)cyclopentyl isopropylcarbamate], the figures for the IC50 against CDK2/Cyclin E1 and against CDK1/Cyclin B1 were 29 nM and 251 nM, respectively.
On to `CCCNC(=O)O[C@H]1CC[C@@H](c2cc(Nc3ccc4c(c3F)CN(C3COC3)S4(=O)=O)n[nH]2)C1` (relative stereo) [Example 136, cis-3-(3-((4-fluoro-2-(oxetan-3-yl)-1,1-dioxido-2,3-dihydrobenzo[d]isothiazol-5-yl)amino)-1H-pyrazol-5-yl)cyclopentyl propylcarbamate], for which the half-maximal inhibitory concentration (IC50) at CDK2/Cyclin E1 worked out at 22 nM; against CDK1/Cyclin B1 it was 457 nM.
For `COCC(C)NC(=O)O[C@H]1CC[C@@H](c2cc(Nc3ccc4c(c3F)CNS4(=O)=O)n[nH]2)C1` (relative stereo) [Example 161, cis-3-(3-((4-fluoro-1,1-dioxido-2,3-dihydrobenzo[d]isothiazol-5-yl)amino)-1H-pyrazol-5-yl)cyclopentyl(1-methoxypropan-2-yl)carbamate], in that order: 6.5 nM and 332 nM.
On the same counts, the results for `CC(C)NC(=O)O[C@H]1CC[C@@H](c2cc(Nc3ccc4c(c3F)S(=O)(=O)NC4)n[nH]2)C1` (single isomer, unassigned) [Example 186a, cis-3-(3-((7-fluoro-1,1-dioxido-2,3-dihydrobenzo[d]isothiazol-6-yl)amino)-1H-pyrazol-5-yl)cyclopentyl isopropylcarbamate] are 4.8 nM and 255 nM.
On the same counts, the results for `CNC(=O)O[C@H]1CC[C@@H](c2cc(Nc3ccc4c(c3)CS(=O)(=O)N4C)n[nH]2)C1` (relative stereo) [Example 225, cis-3-(3-((1-methyl-2,2-dioxido-1,3-dihydrobenzo[c]isothiazol-5-yl)amino)-1H-pyrazol-5-yl)cyclopentyl methylcarbamate] are 87 nM and 789 nM.
For `CC(C)NC(=O)O[C@H]1CC[C@@H](c2cc(Nc3ccc4c(c3F)S(=O)(=O)N(C(C)C)C4)n[nH]2)C1` (relative stereo) [Example 193, cis-3-(3-((7-fluoro-2-isopropyl-1,1-dioxido-2,3-dihydrobenzo[d]isothiazol-6-yl)amino)-1H-pyrazol-5-yl)cyclopentyl isopropylcarbamate], the IC50 against CDK2/Cyclin E1 worked out at 16 nM; at CDK1/Cyclin B1, 362 nM.
With `O=C(NC1(CO)CCC1)O[C@H]1CC[C@@H](c2cc(Nc3ccc4c(c3)CS(=O)(=O)N4)n[nH]2)C1` (relative stereo) [Example 417, cis-3-(3-((2,2-dioxido-1,3-dihydrobenzo[c]isothiazol-5-yl)amino)-1H-pyrazol-5-yl)cyclopentyl(1-(hydroxymethyl)cyclobutyl)carbamate], the results for the IC50 against CDK2/Cyclin E1 and against CDK1/Cyclin B1 were 3 nM and 18 nM, respectively.
On the same counts, the results for `CN1c2ccc(Nc3cc([C@H]4CC[C@@H](OC(=O)NC(C)(C)C)C4)[nH]n3)cc2CS1(=O)=O` [Example 391a] are 0.7 nM and 17 nM.
For `CCCNC(=O)O[C@H]1CC[C@@H](c2cc(Nc3ccc4c(c3F)CS(=O)(=O)N4C3COC3)n[nH]2)C1` (single isomer, unassigned) [Example 260a, cis-3-(3-((4-fluoro-1-(oxetan-3-yl)-2,2-dioxido-1,3-dihydrobenzo[c]isothiazol-5-yl)amino)-1H-pyrazol-5-yl)cyclopentyl propylcarbamate], in that order: 5.9 nM and 270 nM.
For `COCC(C)(C)NC(=O)O[C@H]1CC[C@@H](c2cc(Nc3ccc4c(c3F)CS(=O)(=O)N4CCO)n[nH]2)C1` (relative stereo) [Example 394, cis-3-(3-((4-fluoro-1-(2-hydroxyethyl)-2,2-dioxido-1,3-dihydrobenzo[c]isothiazol-5-yl)amino)-1H-pyrazol-5-yl)cyclopentyl(1-methoxy-2-methylpropan-2-yl)carbamate], in that order: 1.1 nM and 45 nM.
In the case of `CC1(NC(=O)O[C@H]2CC[C@@H](c3cc(Nc4cc5c(cc4F)NS(=O)(=O)C5)n[nH]3)C2)CC1` (relative stereo) [Example 295, cis-3-(3-((6-fluoro-2,2-dioxido-1,3-dihydrobenzo[c]isothiazol-5-yl)amino)-1H-pyrazol-5-yl)cyclopentyl(1-methylcyclopropyl)carbamate], the results for the IC50 at CDK2/Cyclin E1 and against CDK1/Cyclin B1 were 23 nM and 426 nM, respectively.
On the same counts, the results for `CC(C)NC(=O)O[C@H]1CC[C@@H](c2cc(Nc3ccc4c(c3F)CS(=O)(=O)N4C)n[nH]2)C1` (single isomer, unassigned) [Example 255a, cis-3-(3-((4-fluoro-1-methyl-2,2-dioxido-1,3-dihydrobenzo[c]isothiazol-5-yl)amino)-1H-pyrazol-5-yl)cyclopentyl isopropylcarbamate] are 2.9 nM and 133 nM.
For `CC(C)NC(=O)O[C@H]1CC[C@@H](c2cc(Nc3ccc4c(c3F)CN(CC3CNC3)S4(=O)=O)n[nH]2)C1` (relative stereo) [Example 105, cis-3-(3-((2-(azetidin-3-ylmethyl)-4-fluoro-1,1-dioxido-2,3-dihydrobenzo[d]isothiazol-5-yl)amino)-1H-pyrazol-5-yl)cyclopentyl isopropylcarbamate], in that order: 8.4 nM and 689 nM.
Turning to `CC1(NC(=O)O[C@H]2CC[C@@H](c3cc(Nc4ccc5c(c4F)CNS5(=O)=O)n[nH]3)C2)COC1` (single isomer, unassigned) [Example 164a, cis-3-(3-((4-fluoro-1,1-dioxido-2,3-dihydrobenzo[d]isothiazol-5-yl)amino)-1H-pyrazol-5-yl)cyclopentyl(3-methyloxetan-3-yl)carbamate], the results for the IC50 at CDK2/Cyclin E1 and against CDK1/Cyclin B1 were 4.3 nM and 364 nM, respectively.
On the same counts, the results for `O=C(NC1CCC1)O[C@@H]1CC[C@H](c2cc(Nc3ccc4c(c3F)CS(=O)(=O)N4)n[nH]2)C1` (single isomer, unassigned) [Example 399a] are 6.2 nM and 264 nM.
For the compound `CC(C)NC(=O)O[C@H]1CC[C@@H](c2cc(Nc3ccc4c(c3F)C(C)NS4(=O)=O)n[nH]2)C1` (single isomer, unassigned) [Example 51d, cis-3-(3-((4-fluoro-3-methyl-1,1-dioxido-2,3-dihydrobenzo[d]isothiazol-5-yl)amino)-1H-pyrazol-5-yl)cyclopentyl isopropylcarbamate], the figures for the IC50 at CDK2/Cyclin E1 and against CDK1/Cyclin B1 were 8.7 nM and 447 nM, respectively.
On the same counts, the results for `[2H]C([2H])([2H])N1c2ccc(Nc3cc([C@@H]4CC[C@H](OC(=O)N[C@@H](C)CC)C4)[nH]n3)c(F)c2CS1(=O)=O` (relative stereo) [Example 269, cis-3-(3-((4-fluoro-1-(methyl-d3)-2,2-dioxido-1,3-dihydrobenzo[c]isothiazol-5-yl)amino)-1H-pyrazol-5-yl)cyclopentyl((S)-sec-butyl)carbamate] are 5.6 nM and 61 nM.
For `CC(C)NC(=O)O[C@H]1CC[C@@H](c2cc(Nc3cc4c(cc3C(F)(F)F)S(=O)(=O)NC4)n[nH]2)C1` (relative stereo) [Example 20, cis-3-(3-((1,1-dioxido-6-(trifluoromethyl)-2,3-dihydrobenzo[d]isothiazol-5-yl)amino)-1H-pyrazol-5-yl)cyclopentyl isopropylcarbamate], in that order: 931 nM and greater than 10000 nM.
For `CC1NS(=O)(=O)c2ccc(Nc3cc([C@@H]4CC[C@H](OC(=O)NC5(C)CC5)C4)[nH]n3)c(F)c21` (single isomer, unassigned) [Example 52d, cis-3-(3-((4-fluoro-3-methyl-1,1-dioxido-2,3-dihydrobenzo[d]isothiazol-5-yl)amino)-1H-pyrazol-5-yl)cyclopentyl(1-methylcyclopropyl)carbamate], in that order: 1 nM and 56 nM.
On to `CCCNC(=O)O[C@H]1CC[C@@H](c2cc(Nc3ccc4c(c3F)CS(=O)(=O)N4)n[nH]2)C1` (single isomer, unassigned) [Example 387b], for which the figures for the IC50 against CDK2/Cyclin E1 and against CDK1/Cyclin B1 were 2 nM and 37 nM, respectively.
